The text below walks through data of the Deep4Chem optical property database.

The data set can be described thus: solvent given as SMILES.

For `Cc1c2c(c(C)c3ccccc13)-c1c-2ccc2nc3ccccc3nc12`, the absorption maximum (in ClC(Cl)Cl) is listed as 455 nm.

Molecule `CC(C)(C)NC(=O)c1ccc(-c2ccccc2)c2ccc3c4ccccc4c4ccccc4c3c12` registered an absorption maximum (in ClCCl) of 336 nm.

For `Cc1cc(=O)oc2c3c4c(cc12)CCCN4CCC3`, the absorption maximum by setting is: (in C1CCCCC1) 361 nm; (in CC#N) 380 nm; (in CCO) 387 nm; (in O) 396 nm.

`CCCCCCn1c(=O)c2c3oc4ccccc4sc3c3c(=O)n(CCCCCC)c(=O)c3c2c1=O`: the absorption maximum (in ClCCl) worked out at 437 nm.

In the case of `CC(C)[Si]1(C(C)C)c2cc(C#N)ccc2-c2ccc(N(C)C)cc21`, the absorption maximum was 357 nm (in C1CCCCC1); 360 nm (in CC#N); 360 nm (in CCO); 358 nm (in CCOCC); 375 nm (in CS(C)=O); 368 nm (in ClCCl). This molecule registered an absorption maximum (in c1ccccc1) of 360 nm.

For `CCCCN1C(=O)c2cccc3c(C#CC#Cc4ccc5c6c(cccc46)C(=O)N(CCCC)C5=O)ccc(c23)C1=O`, the absorption maximum (in ClCCl) is on record as 372 nm.

In the case of `CCCCOc1cc2ccccc2c2c1oc1cc3ccccc3cc12`, under “in C1CCOC1”, the absorption maximum is given as 351 nm.

Regarding `F[B-]1(F)OC(c2ccc(C(F)(F)F)cc2)=Cc2ccc3ccccc3[n+]21`, for the setting “in ClC(Cl)Cl”, the absorption maximum is recorded as 424 nm.

In turn, `CC(C)(C)c1ccc2c(c1)c1cc(C(C)(C)C)ccc1n2-c1c(C#N)c(-n2c3ccc(C(C)(C)C)cc3c3cc(C(C)(C)C)ccc32)c(-n2c3ccc(C(C)(C)C)cc3c3cc(C(C)(C)C)ccc32)c(-n2c3ccc(C(C)(C)C)cc3c3cc(C(C)(C)C)ccc32)c1-n1c2ccc(C(C)(C)C)cc2c2cc(C(C)(C)C)ccc21` returned an absorption maximum (in Cc1ccccc1) of 427.95 nm.

For the setting “in ClCCl”, `C[Si](c1ccc(-c2nc3ccccc3n2-c2ccccc2)cc1)(c1ccc(-c2nc3ccccc3n2-c2ccccc2)cc1)c1ccc(-c2nc3ccccc3n2-c2ccccc2)cc1` gave an absorption maximum of 307 nm.

Regarding `O=C1C=C(Nc2cccc(F)c2F)C(=O)c2ccccc21`, the absorption maximum runs as follows: (in CCCCCC) 428 nm; (in CO) 439 nm.

`c1ccc(-c2nc(-c3ccccc3)nc(-c3cc(-n4c5ccccc5c5ncccc54)c(-n4c5ccccc5c5ccccc54)c(-n4c5ccccc5c5ncccc54)c3)n2)cc1` registered an absorption maximum (in Cc1ccccc1) of 376.56 nm.

Turning to `COc1ccc(N(c2ccc(/C=C(\C)c3ccccc3)cc2)c2ccc(/C=C(\C)c3ccccc3)cc2)cc1`, the absorption maximum (in Cc1ccccc1) is 364 nm.

For the molecule `CC1=CC(C)=[N+]2C1=C(c1ccc(-c3ccc(OS(=O)(=O)c4ccc([N+](=O)[O-])cc4[N+](=O)[O-])cc3)s1)c1c(C)cc(C)n1[B-]2(F)F`, the absorption maximum is 512 nm (in CO), 518 nm (in Cc1ccccc1) and 515 nm (in ClCCl).

`CCCCCCCCC1(CCCCCCCC)c2cc(-c3ccc(C=C4C(=O)c5ccccc5C4=O)cc3)ccc2-c2ccc(-c3ccc(C=C4C(=O)c5ccccc5C4=O)cc3)cc21` came in with an absorption maximum (in C1CCOC1) of 436 nm; an absorption maximum (in CC(C)=O) of 433 nm; an absorption maximum (in CCCCCC) of 419 nm; an absorption maximum (in CS(C)=O) of 441 nm; an absorption maximum (in Cc1ccccc1) of 429 nm; an absorption maximum (in ClC(Cl)Cl) of 444 nm.

For `CCc1c(C)c2n(c1C)[B-](F)(F)[N+]1=C(NCc3ccc(OC)cc3)C(SC#N)=CC1=C2C`, the absorption maximum is, setting by setting: (in CC#N) 562 nm; (in CCCCCC) 572 nm; (in CCOC(C)=O) 565 nm; (in CO) 562 nm; (in ClCCl) 568 nm.

As for `CCN(CC)c1cc2oc3cc(N(CC)CC)c(F)cc3c(=O)c2cc1F`, the absorption maximum (in CCO) amounted to 389 nm.

Under “in ClCCl”, `Clc1ccc(N2c3c(sc4ccccc34)Sc3sc4ccccc4c32)cc1` returned an absorption maximum of 309 nm.

Molecule `O=c1cccc2n1CN1C=C(Br)C=CC1=N2` came in with an absorption maximum (in CO) of 436 nm.

The molecule `C(=C\c1ncccn1)/c1ccc(-c2ccc(N(c3ccccc3)c3ccccc3)cc2)cc1` showed an absorption maximum (in ClCCl) of 373 nm.

`COc1ccccc1C1=[N+]2C(=Nc3c(-c4ccccc4)cc(-c4ccccc4OC)n3[B-]2(F)F)C(c2ccccc2)=C1` came in with an absorption maximum (in Cc1ccccc1) of 640 nm.

For `COCCN1C(=O)/C(=C/c2cccc(N(C)C)c2)N=C1C`, the absorption maximum is recorded as 353 nm (in C1CCOC1), 353 nm (in CC#N) and 352 nm (in CCCCCC).

Turning to `COC(=O)[C@H](Cc1ccc2oc3c(c2c1)=CC1=C(c2ccc(OC)cc2)c2cc4c5cc(C[C@H](NC(=O)OC(C)(C)C)C(=O)OC)ccc5oc4n2[B-](F)(F)[N+]=31)NC(=O)OC(C)(C)C`, the absorption maximum is, setting by setting: (in C1CCCCC1) 586.5 nm; (in CCOC(C)=O) 581.5 nm; (in CO) 580 nm.

Turning to `CCN1c2ccc(/C=N/Nc3ccccn3)cc2Sc2cc(/C=N/Nc3ccccn3)ccc21`, the absorption maximum is, setting by setting: (in C1CCOC1) 392 nm; (in CS(C)=O) 398 nm; (in Cc1ccccc1) 392 nm; (in ClCCl) 393 nm.

For `c1ccc([B-]23Oc4ccccc4-c4c5[n+]6c(c([n+]42)-c2ccccc2O3)-c2ccccc2O[B-]6(c2ccccc2)Oc2ccccc2-5)cc1`, the absorption maximum (in ClCCl) is reported as 574 nm.

Under “in C1CCCCC1”, `c1ccc(-c2ccc(-c3ccc4c(c3)CCO4)cc2)cc1` displayed an absorption maximum of 289 nm.

For the setting “in C1COCCO1”, `CCC1=C(C2=C(C3=C(CC)S(=O)(=O)c4cc(-c5ccc(C)s5)ccc43)C(F)(F)C(F)(F)C2(F)F)c2ccc(-c3ccc(C)s3)cc2S1(=O)=O` registered an absorption maximum of 374 nm.

Take `CN(C)c1ccc(/C=C/C=C/c2nc3ccccc3o2)cc1`: the absorption maximum (in C1COCCO1) worked out at 411 nm; the absorption maximum (in CC#N) was 410 nm; the absorption maximum (in CC(C)=O) worked out at 409 nm; the absorption maximum (in CCCCCC) was 401 nm; the absorption maximum (in CCCCO) was 417 nm; the absorption maximum (in CCCO) came out at 417 nm. For the same molecule, the absorption maximum is listed as 417 nm (in CCO); 419 nm (in CN(C)C=O); 417 nm (in CO); 413 nm (in Cc1ccccc1); 406 nm (in ClC(Cl)(Cl)Cl); 414 nm (in ClC(Cl)Cl). The molecule further returned an absorption maximum (in ClCCl) of 415 nm, an absorption maximum (in OCC(O)CO) of 424 nm, an absorption maximum (in OCCO) of 424 nm and an absorption maximum (in c1ccccc1) of 411 nm.

As to `CN(C)c1ccc(C(=Cc2ccc(/C=C(\C#N)c3ccccc3)cc2)c2ccc(N(C)C)cc2)cc1`, the absorption maximum (in C1CCOC1) was found to be 436 nm.

In the case of `Cn1c(=O)cc(C(=O)c2ccccc2)c2sc(-c3ccc(OC(F)(F)F)cc3)cc21`, the absorption maximum (in CC#N) came out at 394 nm and the absorption maximum (in ClCCl) worked out at 400 nm.

In the case of `CN(c1ccccc1)c1ccc(/C=C2\C(=O)c3ccccc3S2(=O)=O)cc1`, the absorption maximum runs as follows: (in C1CCOC1) 468 nm; (in C1COCCO1) 466 nm; (in CC#N) 471 nm; (in CC(C)=O) 470 nm; (in CCOC(C)=O) 465 nm; (in CN(C)C=O) 478 nm. Besides, the absorption maximum worked out at 475 nm (in CO); 483 nm (in CS(C)=O); 472 nm (in Cc1ccccc1); 479 nm (in ClC(Cl)Cl); 476 nm (in ClCCl).
